Some test systems named below: A549 NSCLC; BT-549 breast; CAKI-1 renal; EKVX NSCLC; HS 578T breast; M14 melanoma; SK-MEL-5 melanoma; T-47D breast; U251 CNS; MDA-N.
Holding throughout (assay): NCI tumour cell line growth inhibition, 48 h

Several values for one entry are separate records, joined by “and”; a condition that tells them apart may be missing. Equal entries are not always repeated.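 In this assay, cells in 96-well plates receive the compound at five concentrations for 48 hours. Endpoints are linearly interpolated between the surrounding concentrations. The concentration for 50% growth inhibition is given as GI50. TGI: total growth inhibition.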

These results are taken from PubChem BioAssay (NCI).

As to `C=C(C)[C@@]1(O)O[C@H]2C[C@@]3(C)OC(=CC3=O)/C(C)=C\[C@@H]3OC(=O)[C@@]1(C)[C@H]32`, the TGI was more than 93.3 µM with A549 NSCLC; 23.9 µM in the experiment on BT-549 breast; 42.9 µM in the experiment on CAKI-1 renal; more than 65.1 µM with EKVX NSCLC; more than 100 µM with HS 578T breast; 37.5 µM with M14 melanoma. For the same compound, the TGI in the experiment on SK-MEL-5 melanoma was 30.5 µM; in the experiment on T-47D breast, 59.2 µM; with U251 CNS it was 33.6 µM.

For `Clc1ccc2c(SCC3CO3)c3ccccc3nc2c1` (stereo not given), the TGI with A549 NSCLC was found to be 20.3 µM; with BT-549 breast it was 18.7 µM; with CAKI-1 renal it was 2.88 µM; in the experiment on EKVX NSCLC, 20.4 µM; in the experiment on M14 melanoma, 3.34 µM; with SK-MEL-5 melanoma, 9.07 µM. Also, the TGI in the experiment with T-47D breast came out at 4.97 µM.

As for `O=C(O)CCCl`, the TGI in the experiment with A549 NSCLC, with CAKI-1 renal, in the experiment with M14 melanoma, in the experiment on SK-MEL-5 melanoma and in the experiment on U251 CNS was more than 5000 µM each time.

On to `COC(=O)N1CC2(CO)C3CC=C(C(=O)Nc4ccccc4Br)C2C1C3Br` (stereo not given), for which the TGI in the experiment with A549 NSCLC, in the experiment with CAKI-1 renal, with EKVX NSCLC, in the experiment on HS 578T breast, in the experiment on M14 melanoma and with MDA-N was more than 50 µM in each case. For the same compound, the TGI in the experiment on SK-MEL-5 melanoma, in the experiment with T-47D breast and in the experiment on U251 CNS was more than 50 µM each time.

Regarding `O=C(CSc1nnc(-c2ccc(N=Cc3ccc(Cl)cc3)cc2)o1)Nc1ccccc1Cl`, the TGI with A549 NSCLC, with EKVX NSCLC, with M14 melanoma, in the experiment with SK-MEL-5 melanoma and with U251 CNS was more than 100 µM throughout.

As to `CC1=NN(c2nc(N)nc(-c3ccccc3S(N)(=O)=O)n2)C(C)(C)C1`, the TGI in the experiment on CAKI-1 renal is more than 100 µM; in the experiment with EKVX NSCLC, more than 100 µM; in the experiment with HS 578T breast, more than 100 µM; with M14 melanoma it was 87.2 µM; in the experiment with MDA-N, more than 100 µM; in the experiment on SK-MEL-5 melanoma, more than 100 µM. Also, the TGI in the experiment with T-47D breast and with U251 CNS was more than 100 µM throughout.

Turning to `O=C(Nc1c(O)[nH]c(=S)[nH]c1=O)c1ccccn1`, the TGI in the experiment with A549 NSCLC, with CAKI-1 renal, in the experiment with M14 melanoma, with SK-MEL-5 melanoma and in the experiment with U251 CNS was more than 100 µM each time.

With `COc1cccc2c1OC1c3ccccc3OCC1C2` (stereo not given), the TGI in the experiment with A549 NSCLC, in the experiment with BT-549 breast, in the experiment on CAKI-1 renal, in the experiment on EKVX NSCLC, in the experiment with M14 melanoma and in the experiment on MDA-N was more than 100 µM each time. Also, the TGI in the experiment with SK-MEL-5 melanoma, in the experiment on T-47D breast and in the experiment with U251 CNS was more than 100 µM in each case.

As for `CCOC(=O)c1ccc(N=NN(C)C(=O)C(C)N)cc1` (stereo not given), the TGI with BT-549 breast, in the experiment with CAKI-1 renal, in the experiment on EKVX NSCLC, in the experiment with M14 melanoma, in the experiment on MDA-N and in the experiment with SK-MEL-5 melanoma was more than 100 µM throughout. The TGI in the experiment on T-47D breast and with U251 CNS was more than 100 µM throughout.

For the compound `CCC(C)[C@@H](NCc1ccccc1)[C@H](OCc1ccccc1)[C@@H]1COC(C)(C)O1` (stereo not given in full), the TGI in the experiment on A549 NSCLC is 78.8 µM; in the experiment with EKVX NSCLC, 42.7 µM; in the experiment with HS 578T breast it was 70.7 µM; with M14 melanoma it was more than 100 µM; in the experiment with MDA-N, more than 100 µM; in the experiment on SK-MEL-5 melanoma, 29 µM. The same compound had a TGI with U251 CNS of 51.1 µM.

Take `C1OCC2S[C@@H]3COCO[C@@H]3C2O1` (stereo not given in full): the TGI in the experiment on A549 NSCLC, with CAKI-1 renal, with EKVX NSCLC, with M14 melanoma, in the experiment with SK-MEL-5 melanoma and in the experiment with U251 CNS was more than 100 µM throughout.

Take `CC[n+]1cnc(N)c2c(-c3ccc(Cl)cc3)cn(-c3ccc(C)cc3)c21`: the TGI in the experiment with A549 NSCLC is 25.7 µM; in the experiment on CAKI-1 renal, 30.6 µM; with EKVX NSCLC it was 30.8 µM; in the experiment on M14 melanoma it was 4.14 µM; with MDA-N, 25 µM; with SK-MEL-5 melanoma it was 22 µM. The TGI came to 32.2 µM in the experiment with T-47D breast and 24.3 µM in the experiment on U251 CNS.

As for `S=c1sc2c(Cl)ncnc2n1-c1ccccc1`, the TGI is 67.8 µM in the experiment on A549 NSCLC; 13.8 µM with CAKI-1 renal; 31.5 µM with EKVX NSCLC; 26.3 µM with M14 melanoma; 29.7 µM in the experiment on SK-MEL-5 melanoma; 29.5 µM in the experiment with U251 CNS.

Take `C=C1C(=O)OC2/C=C(\C)C(OC(C)=O)C3OC3C(C)(O)CC(OC(=O)/C(C)=C/C)C12` (stereo not given): the TGI was determined as 42.6 µM in the experiment on A549 NSCLC; 5.94 µM with CAKI-1 renal; 34.9 µM with EKVX NSCLC; 16 µM in the experiment on M14 melanoma; 27.4 µM in the experiment with SK-MEL-5 melanoma; 24.5 µM with U251 CNS.

For `CCC1(O)CC(OC2CC(N(C)C)C(OC3CC4OC5CC(=O)C(C)OC5OC4C(C)O3)C(C)O2)c2c(cc3c(c2O)C(=O)c2c(O)ccc(O)c2C3=O)C1C(=O)OC` (stereo not given), the GI50 in the experiment on CAKI-1 renal is 0.00251 µM and 0.00763 µM; in the experiment with M14 melanoma, 0.0245 µM; in the experiment on U251 CNS, 0.00486 µM and 0.00785 µM and < 0.0121 µM. Also, the TGI in the experiment with T-47D breast is 0.0172 µM and 0.0152 µM.

Take `O=C(CSCC(=O)N/N=C/c1cc(I)cc(I)c1O)N/N=C/c1cc(I)cc(I)c1O`: the TGI in the experiment on A549 NSCLC is more than 100 µM; in the experiment on CAKI-1 renal, more than 100 µM; in the experiment on EKVX NSCLC, 79.2 µM; in the experiment with HS 578T breast, 39 µM; in the experiment with M14 melanoma, 43.6 µM; with SK-MEL-5 melanoma, 24.8 µM. Besides, the TGI is more than 100 µM in the experiment on T-47D breast and 26.2 µM in the experiment with U251 CNS.

For `c1csc(-c2ccc(-c3ccc(-c4ccc(-c5cccs5)s4)s3)s2)c1`, the TGI in the experiment on CAKI-1 renal, in the experiment on EKVX NSCLC, with HS 578T breast, in the experiment with M14 melanoma, in the experiment with SK-MEL-5 melanoma and in the experiment on U251 CNS was more than 100 µM throughout.

`Nc1nc(N)c2ncn(CC3CCC(CO)C3)c2n1` (stereo not given): the TGI in the experiment with A549 NSCLC, with CAKI-1 renal, with EKVX NSCLC, in the experiment with HS 578T breast, with M14 melanoma and in the experiment on MDA-N was more than 100 µM throughout. The TGI in the experiment with SK-MEL-5 melanoma, with T-47D breast and in the experiment with U251 CNS was more than 100 µM in each case.
